Values of other authors as cited in article PMC7489895 (Biochemical Journal, 2020).

Legend:
human skeletal muscle = details: ref Ahn et al. [30]
MondoA = details: skeletal myoblasts, in response to insulin; ref Ahn et al. [30]
importin α = importin α (Mus musculus, UniProt P52293); details: read-out: KD, NLS - importin α

Kd (importin α) [nM]	Molecule	effect on intramuscular lipid accumulation (human skeletal muscle)	effect on nuclear localization of MondoA (MondoA)
–	COc1ccc(-c2csc(NC(=O)c3ccc(OCC(=O)N4CCOCC4)c(OC)c3)n2)cc1 [SBI-477]	inhibits intramuscular lipid accumulation	inhibits the nuclear localization of Mondo A
190 ± 20	K^155RPAATKKAGQAKKKK^170 (KRPAATKKAGQAKKKK; NLS; UniProt P05221 155-170, looked up, fragment) [Nucleoplasmin]	–	–
5000 ± 100	R^617KCYEAGMTLGARKLKKL^634	–	–

Molecule	Kd (importin α) [nM]	effect on intramuscular lipid accumulation (human skeletal muscle)	effect on nuclear localization of MondoA (MondoA)
P^126KKKRKV^132 [SV40]	310 ± 150	–	–
